In brackets after ≈: the same amount, converted by molar mass.
Assays:
[1] = test system: E. coli WT-3 [gyrA(S83L,D87G)]; assay: microbe, parasite or virus in culture; type: cell-based; settings: for MIC: Escherichia coli, read-out: MIC E. coli WT-3 [gyrA(S83L,D87G)]
Method in brief: (§1)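 Inoculum: 10^4-10^6 cfu/mL from overnight culture. Medium: cation-adjusted Müller-Hinton broth. Incubation: approx. 16 h, 30-37° C. Read-out: visual, MIC at no growth.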

E. faecalis = assay: MIC, microbroth dilution susceptibility assay (Table 2b); type: cell-based; settings: larger panel; for MIC: Enterococcus faecalis
Protocol: (§2) Cystobactamid derivatives synthesized were tested against relevant Gram negative and positive bacteria of clinical interest. Experimental procedures used for the biological characterization of the compounds are the same as previously described in WO 2016/082934.
(§3) Bacterial strains used in susceptibility assays (minimum inhibitory concentration, MIC) were either part of our internal strain collection or purchased from the German Collection of Microorganisms and Cell Cultures (Deutsche Sammlung von Mikroorganismen und Zellkulturen, DSMZ) and the American Type Culture Collection (ATCC). The susceptible E. coli strain (WT) and fluoroquinolone-resistant mutants E. coli WT-3 and WT-III were kindly provided by Prof Dr. P. Heisig, Pharmaceutical Biology and Microbiology, University of Hamburg, Germany. The efflux-deficient strain P. aeruginosa ΔmexAB was kindly provided by Prof Dr. S. Häußler, Institute for Molecular Bacteriology, TWINCORE, Hannover, Germany. All compounds were prepared as DMSO stocks and MIC values were determined in standard microbroth dilution assays in 96-well MTPs as described in Baumann et al., Angew Chem Int Ed Engl. 2014; 53(52):14605-9. In brief, overnight cultures of bacteria were diluted in either tryptic soy broth (TSB: 1.7% peptone casein, 0.3% peptone soymeal, 0.25% glucose, 0.5% NaCl, 0.25% K2HPO4; pH 7.3; S. pneumoniae and E. faecalis) or cation-adjusted Müller-Hinton Broth (BBL™, BD; all other bacteria) and adjusted to 10^4-10^6 cfu/mL. Bacteria were grown in the presence of the derivatives in serial dilution for approx. 16 h at 30-37° C. MIC values were determined and were defined as the antibiotic concentration at which no visual growth of bacteria was observed.

E. aerogenes = assay: as above; type: cell-based; settings: larger panel; for MIC: Klebsiella aerogenes
Protocol: as §2, §3

P. mirabilis = assay: as above; type: cell-based; settings: larger panel; for MIC: Proteus mirabilis
Protocol: as §2, §3

P. aeruginosa ESBL 2 = assay: as above; type: cell-based; settings: for MIC: Pseudomonas aeruginosa, ESBL2, larger panel
Protocol: as §2, §3

S. marcescens = assay: as above; type: cell-based; settings: larger panel; for MIC: Serratia marcescens
Protocol: as §2, §3

C. freundii = assay: as above; type: cell-based; settings: larger panel; for MIC: Citrobacter freundii
Protocol: as §2, §3

K. pneumoniae = assay: as above; type: cell-based; settings: larger panel; for MIC: Klebsiella pneumoniae
Protocol: as §2, §3

P. vulgaris = assay: as above; type: cell-based; settings: larger panel; for MIC: Proteus vulgaris
Protocol: as §2, §3

P. aeruginosa ESBL 1 = assay: as above; type: cell-based; settings: for MIC: Pseudomonas aeruginosa, ESBL1, larger panel
Protocol: as §2, §3

A. baumannii = assay: as above; type: cell-based; settings: larger panel; for MIC: Acinetobacter baumannii
Protocol: as §2, §3

E. cloacae = assay: as above; type: cell-based; settings: larger panel; for MIC: Enterobacter cloacae
Protocol: as §2, §3

S. epidermidis = assay: as above; type: cell-based; settings: larger panel; for MIC: Staphylococcus epidermidis
Protocol: as §2, §3

E. coli WT = assay: MIC, microbroth dilution susceptibility assay; type: cell-based; settings: for MIC: Escherichia coli
Method in brief: as §1

P. aeruginosa ΔmexAB = assay: microbe, parasite or virus in culture; type: cell-based; settings: Pseudomonas aeruginosa, 16 h, read-out: MIC P. aeruginosa ΔmexAB, efflux-deficient strain; small panel, Tables 1a/1b
Method in brief: as §1

E. coli ΔtolC = assay: microbe, parasite or virus in culture; type: cell-based; settings: Escherichia coli, 16 h, read-out: MIC E. coli ΔtolC, small panel, Tables 1a/1b; no visual growth after approx. 16 h
Method in brief: as §1

[2] = test system: E. coli WT-III [marRΔ74bp]; type: cell-based; settings: fluoroquinolone-resistant mutant; Table 2a
Protocol: as §2, §3

S. epidermidis DSM-28765 = assay: MIC, microbroth dilution susceptibility assay; type: cell-based; settings: Staphylococcus epidermidis, DSM28765; large panel, Table 2a
Method in brief: as §1

P. vulgaris DSM-2140 = assay: MIC, microbroth dilution susceptibility assay; type: cell-based; settings: Proteus vulgaris, DSM2140; large panel, Table 2a
Method in brief: as §1

P. aeruginosa DSM-24600 = assay: MIC, microbroth dilution susceptibility assay; type: cell-based; settings: Pseudomonas aeruginosa, DSM24600; large panel, Table 2a
Method in brief: as §1

P. mirabilis DSM-2140 = assay: MIC, microbroth dilution susceptibility assay; type: cell-based; settings: Proteus mirabilis, DSM2140; large panel, Table 2a
Method in brief: as §1

E. aerogenes DSM-30053 = assay: MIC, microbroth dilution susceptibility assay; type: cell-based; settings: Klebsiella aerogenes, DSM30053; large panel, Table 2a
Method in brief: as §1

S. pneumoniae DSM-20566 = assay: MIC, microbroth dilution susceptibility assay; type: cell-based; settings: Streptococcus pneumoniae, DSM20566; large panel, Table 2a; TSB
Method in brief: as §1

S. aureus ATCC-29213 = assay: MIC, microbroth dilution susceptibility assay; type: cell-based; settings: Staphylococcus aureus, ATCC29213; large panel, Table 2a
Method in brief: as §1

C. freundii DSM-30039 = assay: MIC, microbroth dilution susceptibility assay; type: cell-based; settings: Citrobacter freundii, DSM30039; large panel, Table 2a
Method in brief: as §1

E. faecalis ATCC-29212 = assay: MIC, microbroth dilution susceptibility assay; type: cell-based; settings: Enterococcus faecalis, ATCC29212; large panel, Table 2a; TSB
Method in brief: as §1

E. cloacae DSM-30054 = assay: MIC, microbroth dilution susceptibility assay; type: cell-based; settings: Enterobacter cloacae, DSM30054; large panel, Table 2a
Method in brief: as §1

E. coli WT DSM-1116 = assay: MIC, microbroth dilution susceptibility assay; type: cell-based; settings: Escherichia coli, DSM1116; small panel, Tables 1a/1b; no visual growth after approx. 16 h; read-out: MIC E. coli WT DSM-1116
Method in brief: as §1

K. pneumoniae DSM-30104 = assay: MIC, microbroth dilution susceptibility assay; type: cell-based; settings: Klebsiella pneumoniae, DSM30104; large panel, Table 2a
Method in brief: as §1

S. aureus Newman = assay: MIC, microbroth dilution susceptibility assay; type: cell-based; settings: Staphylococcus aureus, NEWMAN; small panel, Tables 1a/1b; read-out: MIC S. aureus Newman
Method in brief: as §1

P. aeruginosa WT PA14 = assay: MIC, microbroth dilution susceptibility assay; type: cell-based; settings: Pseudomonas aeruginosa, PA14, small panel, Tables 1a/1b; read-out: MIC P. aeruginosa WT PA14
Method in brief: as §1

P. aeruginosa DSM-46316 = assay: MIC, microbroth dilution susceptibility assay; type: cell-based; settings: Pseudomonas aeruginosa, DSM46316; large panel, Table 2a
Method in brief: as §1

S. marcescens DSM-30121 = assay: MIC, microbroth dilution susceptibility assay; type: cell-based; settings: Serratia marcescens, DSM30121; large panel, Table 2a
Method in brief: as §1

A. baumannii DSM-30008 = assay: MIC, microbroth dilution susceptibility assay; type: cell-based; settings: Acinetobacter baumannii, DSM30008; large panel, Table 2a
Method in brief: as §1

E. coli gyrase = target: T1, E. coli gyrase (Escherichia coli, UniProt P0AES4+P0AES6); assay: E. coli gyrase supercoiling (sc) assay; type: biochemical; settings: supercoiling assay kit, agarose gel quantification; read-out: Ec gyrase sc IC50
T1 construct: purchased Inspiralis
Protocol: The target activity on E. coli gyrase was assessed as described in Baumann et al., Angew Chem Int Ed Engl. 2014; 53(52):14605-9 using a commercial supercoiling (sc) assay kit from Inspiralis according to the manufacturer's instructions. The samples were separated on 0.8% (w/v) agarose gels and relaxed and supercoiled plasmid was visualized by ethidium bromide staining. Half-inhibitory concentrations (IC50) were calculated after image analysis and quantification (ImageJ) based on sigmoidal curve fitting (OriginPro).

Structure (SMILES)	MIC [1] [mg/L]	MIC (P. aeruginosa ΔmexAB) [mg/L]	MIC (E. coli ΔtolC) [mg/L]	MIC (E. faecalis) [mg/L]	MIC (E. aerogenes) [mg/L]	MIC (P. mirabilis) [mg/L]	MIC (P. aeruginosa ESBL 2) [mg/L]	MIC (S. marcescens) [mg/L]	MIC (C. freundii) [mg/L]	MIC (K. pneumoniae) [mg/L]	MIC (P. vulgaris) [mg/L]	MIC (P. aeruginosa ESBL 1) [mg/L]	MIC (A. baumannii) [mg/L]	MIC (E. cloacae) [mg/L]	MIC (S. epidermidis) [mg/L]	MIC (E. coli WT; larger panel, Table 2b) [mg/L]	MIC (E. coli WT DSM-1116) [mg/L]	MIC (S. aureus Newman) [mg/L]	MIC (P. aeruginosa WT PA14) [mg/L]	other results
COc1c(NC(=O)c2ccc(NC(=O)c3ccc(NC(=O)[C@H](CC#N)NC(=O)c4ccc(NC(=O)/C(C)=C/c5ccc(O)cc5)cc4)cc3)c(OC)c2O)ccc(C(=O)O)c1O [Alb, Albicidin, reference compound]	–	–	–	–	–	–	–	–	–	–	–	–	–	–	–	–	–	–	–	MIC E. coli WT-3 [gyrA(S83L, D87G)] ([1]; larger panel, Table 2b): 0.06 mg/L (≈ 0.0712 µM); MIC E. faecalis (E. faecalis): 4 mg/L (≈ 4.75 µM); MIC E. aerogenes (E. aerogenes): >64 mg/L; MIC P. mirabilis (P. mirabilis): >64 mg/L; MIC P. aeruginosa ESBL 2 (P. aeruginosa ESBL 2; larger panel): 16 mg/L (≈ 19 µM); MIC S. marcescens (S. marcescens): >64 mg/L; MIC C. freundii (C. freundii): <0.03 mg/L; MIC K. pneumoniae (K. pneumoniae): >64 mg/L; MIC P. vulgaris (P. vulgaris): <0.03 mg/L; MIC P. aeruginosa ESBL 1 (P. aeruginosa ESBL 1; larger panel): 16 mg/L (≈ 19 µM); MIC A. baumannii (A. baumannii): >64 mg/L; MIC E. cloacae (E. cloacae): >64 mg/L; MIC S. epidermidis (S. epidermidis): 0.5 mg/L (≈ 0.593 µM); MIC E. coli WT (E. coli WT; larger panel, Table 2b): 0.06 mg/L (≈ 0.0712 µM)
CC(C)Oc1c(NC(=O)c2ccc(NC(=O)[C@H](CC(N)=O)NC(=O)c3ccc(NC(=O)c4ccc(C#N)cc4)cc3)cc2)ccc(C(=O)Nc2ccc(C(=O)O)cc2)c1O [Compound 44, (S)-4-(4-(4-(4-amino-2-(4-(4-cyanobenzamido)benzamido)-4-oxobutanamido)benzamido)-2-hydroxy-3-isopropoxybenzamido)benzoic acid]	0.13 (≈ 0.16 µM)	0.25 (≈ 0.308 µM)	0.06 (≈ 0.0739 µM)	0.5 (≈ 0.616 µM)	0.06 (≈ 0.0739 µM)	> 64	4 (≈ 4.93 µM)	> 64	< 0.03	0.5 (≈ 0.616 µM)	0.25 (≈ 0.308 µM)	4 (≈ 4.93 µM)	1 (≈ 1.23 µM)	0.25 (≈ 0.308 µM)	< 0.03	0.25 (≈ 0.308 µM)	0.5 (≈ 0.616 µM)	0.25 (≈ 0.308 µM)	2 (≈ 2.46 µM)	MIC E. coli WT-III [marRΔ74bp] [2]: 0.25 mg/L (≈ 0.308 µM); MIC (S. epidermidis DSM-28765): 0.06 mg/L (≈ 0.0739 µM); MIC (E. coli WT; large panel, Table 2a): 0.25 mg/L (≈ 0.308 µM); MIC (P. vulgaris DSM-2140): 0.25 mg/L (≈ 0.308 µM); MIC (P. aeruginosa DSM-24600): > 64 mg/L; MIC (P. mirabilis DSM-2140): 64 mg/L (≈ 78.8 µM); MIC (E. aerogenes DSM-30053): 1 mg/L (≈ 1.23 µM); MIC (S. pneumoniae DSM-20566): 0.13 mg/L (≈ 0.16 µM); MIC (S. aureus ATCC-29213): 0.5 mg/L (≈ 0.616 µM); MIC (C. freundii DSM-30039): < 0.03 mg/L; MIC (E. faecalis ATCC-29212): 0.5 mg/L (≈ 0.616 µM); MIC (E. cloacae DSM-30054): 0.25 mg/L (≈ 0.308 µM); MIC (K. pneumoniae DSM-30104): 0.5 mg/L (≈ 0.616 µM); MIC (P. aeruginosa DSM-46316): 2 mg/L (≈ 2.46 µM); MIC (S. marcescens DSM-30121): > 64 mg/L; MIC (A. baumannii DSM-30008): 1 mg/L (≈ 1.23 µM)
CO[C@@H](C(N)=O)[C@H](NC(=O)c1ccc(NC(=O)c2ccc(C#N)cc2)cc1)C(=O)Nc1ccc(C(=O)Nc2ccc(C(=O)Nc3ccc(C(=O)O)cc3)c(O)c2OC(C)C)cc1 [Compound 109, 4-(4-(4-((2S,3R)-4-amino-2-(4-(4-cyanobenzamido)benzamido)-3-methoxy-4-oxobutanamido)benzamido)-2-hydroxy-3-isopropoxybenzamido)benzoic acid]	0.25 (≈ 0.297 µM)	< 0.03	< 0.03	0.125 (≈ 0.148 µM)	2 (≈ 2.38 µM)	4 (≈ 4.75 µM)	1 (≈ 1.19 µM)	> 64	< 0.03	8 (≈ 9.5 µM)	0.125 (≈ 0.148 µM)	2 (≈ 2.38 µM)	1 (≈ 1.19 µM)	> 64	< 0.03	2 (≈ 2.38 µM)	< 0.03	< 0.03	0.5 (≈ 0.594 µM)	IC50 (E. coli gyrase): 0.4 µM
